{
  "source": "patent US11977074B2",
  "about": "“Affinity-based detection of ligand-encoded synthetic biomarkers” (Massachusetts Institute of Technology, priority 2013, dated 2024)",
  "key": {"thrombin [1]": {"molecular_target": "T1, thrombin (Homo sapiens, UniProt P00734)", "assay": "Fluorogenic NW assay with recombinant thrombin", "format": "biochemical", "set-up": "with recombinant thrombin (15 nM; Haematologic Technologies); purchased Haematologic Technologies", "details": "inhibitor 100 μM"}, "MMP9": {"molecular_target": "T2, MMP9 (Homo sapiens, UniProt P14780)", "T2 construct": "purchased R&D Systems", "T2 sequence (P14780 94-707, species assumed)": "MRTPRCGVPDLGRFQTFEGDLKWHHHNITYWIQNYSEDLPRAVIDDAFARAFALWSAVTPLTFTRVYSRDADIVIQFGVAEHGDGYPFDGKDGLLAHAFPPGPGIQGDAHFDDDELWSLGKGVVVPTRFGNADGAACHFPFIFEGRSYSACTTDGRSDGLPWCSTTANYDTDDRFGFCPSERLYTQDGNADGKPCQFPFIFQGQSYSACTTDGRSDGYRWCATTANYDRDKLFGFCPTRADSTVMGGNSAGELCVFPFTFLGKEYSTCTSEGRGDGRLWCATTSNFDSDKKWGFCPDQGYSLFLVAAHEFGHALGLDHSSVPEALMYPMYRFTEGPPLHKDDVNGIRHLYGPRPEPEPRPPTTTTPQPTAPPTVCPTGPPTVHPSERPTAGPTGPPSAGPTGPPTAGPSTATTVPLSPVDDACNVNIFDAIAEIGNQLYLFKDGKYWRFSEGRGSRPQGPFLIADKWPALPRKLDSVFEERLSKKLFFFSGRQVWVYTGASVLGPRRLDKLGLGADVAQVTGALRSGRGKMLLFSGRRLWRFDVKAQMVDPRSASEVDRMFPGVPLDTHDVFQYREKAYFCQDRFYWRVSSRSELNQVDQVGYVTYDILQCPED", "assay": "Fluorogenic NW assay with recombinant MMP9", "format": "biochemical", "details": "inhibitor 100 μM", "protocol": "Fluorescent reporter-bound thrombin- or MMP-sensitive NWs (substrates PLGLRSW, SEQ ID NO: 3, or PLGVRGK, SEQ ID NO: 4, respectively) were introduced to recombinant thrombin or MMP9 (respectively). Release of homoquenched fluorophores upon proteolysis was read as increased fluorescence by plate reader at 37° C. Inhibitors Argatroban or Marimastat were incubated with the protease-NW cocktail at 100 μM. To quantify reporter release by LFA, reporter-functionalized NWs were incubated with cognate proteases, passed through a 30 kDa MW cutoff filter, quantified by LFA, and analyzed by Mann-Whitney test.\n(SpectroMax Gemini EM microplate reader). Argatroban (Sigma) or Marimastat (Tocris) were incubated with the NW-protease cocktail at 100 μM final concentration. To assay proteolytic reporter release by LFA, reporter-functionalized enzyme sensitive NWs were incubated with MMP9 or thrombin as above at 37° C. for four hours and passed through a 30 kDa MW cutoff centrifugal filter. The filtered reporters were diluted to within LFA dynamic range and assayed by LFA as described below. Reporter stability experiments were performed using reporter 3 (1 μM) mixed in 1% w/v BSA with recombinant thrombin or MMP9 (both 15 nM) as above to 100 μL final volume and were incubated at 37° C. for 1 h. […]"}, "MMP": {"tested_on": "MMP", "assay": "Urinary reporters in LS174T colorectal tumor model by ELISA and LFA", "format": "in vivo, mice", "details": "urine test, ELISA", "procedure": "Collection and analysis of urinary peptides. […] Reporter concentration in unprocessed urine was assayed by above protocols from urine diluted 1:10^2L10^4 for ELISA or 1:4-5 for LFA. Data was analyzed using receiver-operator characteristic (ROC) curves (both) and Wilcoxon signed rank test (CRC) or Mann-Whitney test (thrombosis).\nImmediately following infusion, mice were placed over 96-well plates enclosed by a cylindrical tube to collect urine for 30 m (thrombosis model) or 1 h (tumor model). […] Urine was stored at −80° C. directly following collection."}, "thrombin [2]": {"molecular_target": "T3, thrombin (Mus musculus, UniProt P19221)", "T3 construct": "from tissue; host or cells: blood and pulmonary thrombi of live Swiss Webster mice (thromboplastin or collagen/epinephrine induced)", "assay": "Urinary reporters in collagen/epinephrine thrombosis model by ELISA and LFA", "format": "in vivo, mice", "protocol": "Collection and analysis of urinary peptides. […] Urine collection times were optimized from previous studies using these disease models^[30, 31] and are dependent on site of disease and rate of enzymatic substrate cleavage. Reporter concentration in unprocessed urine was assayed by above protocols from urine diluted 1:10^2L10^4 for ELISA or 1:4-5 for LFA. Data was analyzed using receiver-operator characteristic (ROC) curves (both) and Wilcoxon signed rank test (CRC) or Mann-Whitney test (thrombosis).\nImmediately following infusion, mice were placed over 96-well plates enclosed by a cylindrical tube to collect urine for 30 m (thrombosis model) or 1 h (tumor model). Urine collection times were optimized from previous studies using these disease models^[30, 31] and are dependent on site of disease and rate of enzymatic substrate cleavage. Urine was stored at −80° C. directly following collection.\nUnprocessed urine was diluted (1:100-1:10,000) in 1× PBS with 1% w/v BSA and reporters were quantified by ELISA (at least 2 replicates) using standards as described above. Urine was applied to lateral flow test strips in 5 μL volume, at 1:4 (thrombosis model) or 1:5 (CRC model) dilution. Lateral flow tests were performed in triplicate as described above and test strips were allowed to dry and were quantified by automated script as described above. ELISA and LFA data was analyzed using a Wilcoxon signed rank test (CRC) and a Mann-Whitney test (thrombosis).\nUrine concentration is dependent on many host and environmental factors (e.g. diet, activity level, medical history, circadian rhythm); therefore, we sought to develop a normalization strategy for the test. It was hypothesized that co-administered free reporters would pass into the urine independent of disease state and could be used to normalize the level of reporters released by protease activity."}, "thrombin [3]": {"molecular_target": "T1, thrombin", "format": "biochemical", "set-up": "with recombinant thrombin (15 nM; Haematologic Technologies); purchased Haematologic Technologies", "details": "R3 in tandem with thrombin-sensitive substrate on NWs; vs samples not exposed to thrombin", "source_text": "Following in vitro substrate cleavage by thrombin, the peptide fragments were collected by size-exclusion filtration."}, "thrombin [4]": {"molecular_target": "T1, thrombin", "assay": "Fluorogenic NW assay with purified thrombin", "format": "biochemical", "set-up": "mixed with human thrombin (2 μM); purchased Haematologic Technologies", "details": "bivalirudin 5 mg/mL, pre-incubated two minutes", "procedure": "In vitro protease assays: NWs (200 nM by peptide) were mixed with human thrombin (2 μM), FVIIa (10 nM), FIXa (90 nM), FXa (160 nM), FXIa (31 nM), and activated protein C (60 nM, Haematologic Technologies) in a 384-well plate at 37° C. in activity buffers according to the manufacturer's instructions and monitored with a microplate reader (SpectroMax Gemini EM). […] For thrombin inhibition experiments, bivalirudin (Anaspec) was added to a final concentration of 5 mg/mL and pre-incubated for two minutes prior to addition of NWs.\nTo test substrate specificity, fluorophore-labeled derivatives were conjugated onto NWs at a valency sufficient to produce homoquenched substrates (˜40 peptides per NW) and then incubated the NWs with purified thrombin or a panel of blood clotting proteases (FXa, APC, FIXa, FVIIa, FXIa), each present at its maximal physiological concentration during thrombosis (FIG. 1B)."}, "Swiss Webster mice": {"tested_on": "Swiss Webster mice", "assay": "Thromboplastin-induced thrombosis, VT750-fibrin(ogen) deposition in organs", "format": "in vivo", "details": "bivalirudin 10 mg/kg i.v. five minutes prior to thromboplastin", "protocol": "Characterization of thromboplastin-induced thrombosis: Each vial of thromboplastin containing 3-4 mg (from rabbit brain, Sigma) was dissolved in 2 mL of PBS. To quantify fibrin deposition, bovine fibrinogen (Sigma) was reacted with 3-fold molar excess of VT750 for 1 hr at RT, and purified by centrifugal size filtration (size cutoff, Millipore). Swiss Webster mice (Taconic) were lightly anesthetized with isofluorane and administered mixtures of VT750-fibrinogen (1 nmol by VT750) with thromboplastin (n=3 mice per dose) via tail vein injections. After 30 minutes, mice were euthanized by CO2 asphyxiation and organs were scanned on the LI-COR Odyssey Infrared Imaging System. Fibrin(ogen) fluorescence in each organ was quantified using ImageJ software (NIH). To test thrombin inhibition, mice were intravenously administered bivalirudin (10 mg/kg) five minutes prior to co-injection of thromboplastin. […]\nWe next investigated the ability of the synthetic biomarkers to detect thrombosis in living mice induced via intravenous (i.v.) administration of thromboplastin. […] To quantify PE formation, mice were co-injected with thromboplastin and the clot precursor fibrinogen (labeled with the near-infrared fluorophore VT750) so that the formation of fibrin clots by thrombin-mediated proteolysis of fibrinogen could be quantified by fluorescence analysis of whole organs (FIG. 3A). […]"}, "thrombin [5]": {"molecular_target": "T3, thrombin", "assay": "Urinary monitoring of thromboplastin-induced thrombosis by ELISA", "format": "in vivo, mice", "details": "bivalirudin 10 mg/kg; thromboplastin 2 μl per g b.w.", "protocol": "ELISA detection of bifunctionalized reporters: 96-well plates (Thermo Scientific) were incubated with either 0.8 μg/mL of anti-Flsc (GeneTex, GTX19224) or 0.4 μg/mL of anti-Alex Fluor 488 (Invitrogen, A11094) diluted in PBS overnight at 4° C. Plates were blocked with 1% w/v bovine serum albumin (Sigma) in PBS for 1 hr before 100 μL of samples were added. Reporters captured on the plate were then detected by adding 100 μL of 0.2 μg/mL neutravidin-HRP (Pierce), developed with 50 μL TMB solution (Thermo Scientific) for 5-15 minutes and quenched with 50 μL of HCl before the absorbance of the wells was determined by microplate analysis (SpectraMax Plus, Molecular Devices) at 450 nm. Plates were washed 3× with PBST between each steps and incubation occurred at RT unless otherwise stated.\nUrinary monitoring of thrombosis. Experiments were conducted in a paired setup. […] Urine samples were stored at −80° C. until ELISA analysis.\nThe concentration of analytes in the urine is mainly dependent on the hydration state of the host (ranging from 50-1200 mOsm/kg H2O in humans)^[20] and is affected by many external factors (e.g. circadian rhythm, diet, activity, and others). […]"}},
  "note": "Where no end group is shown, it is not given here.",
  "data": [
    {"compound": "CC1CNc2c(cccc2S(=O)(=O)N[C@@H](CCCNC(=N)N)C(=O)N2CC[C@@H](C)C[C@@H]2C(=O)O)C1", "note": "(stereo partly shown) [Argatroban]", "values": [
      {"measurement": "fluorescence of thrombin-sensitive NWs with thrombin in presence of inhibitor", "setting": "thrombin [1]", "result": "No increase in fluorescence"}
    ]},
    {"compound": "CNC(=O)[C@@H](NC(=O)[C@H](CC(C)C)[C@H](O)C(=O)NO)C(C)(C)C", "note": "[Marimastat]", "values": [
      {"measurement": "activity of MMP9 on MMP-sensitive NWs in presence of inhibitor", "setting": "MMP9", "result": "no activity"}
    ]},
    {"compound": "MMP-sensitive NWs: PEG-coated iron oxide nanoworms with MMP9-cleavable substrate PLGVRGK and fluorescein, VT750 or R2 reporter (also: on PEG-coated iron oxide nanoworms, fluorescein, VT750 or R2 reporter)", "values": [
      {"measurement": "ROC a.u.c, discrimination of CRC", "setting": "MMP", "result": 0.90}
    ]},
    {"compound": "TMR-GluFib-Biotin [Reporter R3]", "values": [
      {"measurement": "urinary level of reporter normalized against R4 in mice harboring thrombi", "setting": "thrombin [2]; ELISA", "result": "significantly increased"},
      {"measurement": "urinary level of reporter of thrombin activity in mice harboring thrombi", "setting": "thrombin [2]; ELISA, quantified independently", "result": "significantly increased"},
      {"measurement": "ratio of R3/R4 in diseased urine vs healthy controls", "setting": "thrombin [2]; multiplexed paper strip (LFA)", "result": "statistically significant increase"},
      {"measurement": "detection of cleaved reporter from filtrate by LFA after thrombin cleavage", "setting": "thrombin [3]", "result": "readily detected"}
    ]},
    {"compound": "bivalirudin", "values": [
      {"measurement": "proteolysis of NWs by thrombin in the presence of inhibitor", "setting": "thrombin [4]", "result": "negligible proteolysis"},
      {"measurement": "formation of PEs in pretreated animals", "setting": "Swiss Webster mice", "result": "readily prevented"},
      {"measurement": "urinary reporter levels in mice treated with inhibitor prior to thrombotic challenge", "setting": "thrombin [5]", "result": "abrogated"}
    ]}
  ]
}
